Source: patent US9688634B2, “Pest control agent” (priority 2012, dated 2017)

system: Haemaphysalis longicornis; experiment: Test for Examining Effect on Haemaphysalis longicornis (Test Example 3); assay type: in vivo; settings: treated plastic vial, young mites, 24 hours after contact, 25° C., dark
Method: Test for Examining Effect on Haemaphysalis longicornis
A solution prepared so that the concentration of each Invention Compound therein was 100 ppm was used to treat a plastic vial. After the liquid chemical was air-dried, young mites were placed in the vial. This vial was allowed to stand under constant dark conditions at 25° C. and a relative humidity of 80-100%. At 24 hours after the contact with the chemical, the number of dead mites was recorded. The mortality (%) was determined using the following calculation formula. […] Mortality (%)=((number of dead ticks)/(number of all ticks))×100

| Compound | mortality at 100 ppm [%] |
| --- | --- |
| C=CCc1cnccc1C#Cc1ccc(C(C)(C)C)cc1 [Compound No. 17, 3-allyl-4-((4-tert-butylphenyl)ethynyl)pyridine] | ≥ 90 |

system: brown rice planthopper; experiment: whole plant or invertebrate; assay type: in vivo; settings: Oryza sativa, 120 h, immersion treatment of rice seedlings, second- to third-instar nymphs, 5 days after release, 25° C.

| Compound | mortality at 200 ppm [%] |
| --- | --- |
| CC(C)(C)c1ccc(C#Cc2ccncc2Br)cc1 [Compound No. 10, 3-bromo-4-((4-(tert-butyl)phenyl)ethynyl)pyridine] | ≥ 90 |
| C=CCc1cnccc1C#Cc1ccc(C(C)(C)C)cc1 [Compound No. 17, 3-allyl-4-((4-tert-butylphenyl)ethynyl)pyridine] | ≥ 90 |
| COc1cnccc1C#Cc1ccc(C(C)(C)C)cc1 [Compound No. 21, 4-((4-(tert-butyl)phenyl)ethynyl)-3-methoxypyridine] | ≥ 90 |
| CSc1cnccc1C#Cc1ccc(C(C)(C)C)cc1 [Compound No. 26, 4-((4-(tert-butyl)phenyl)ethynyl)-3-(methylthio)pyridine] | ≥ 90 |
| CC(C)(C)c1ccc(C#Cc2ccncc2N)cc1 [Compound No. 30, 4-((4-(tert-butyl)phenyl)ethynyl)pyridine-3-amine] | ≥ 90 |
| CCCNc1cnccc1C#Cc1ccc(C(C)(C)C)cc1 [Compound No. 32, 4-((4-(tert-butyl)phenyl)ethynyl)-N-propylpyridine-3-amine] | ≥ 90 |
| CCNc1cnccc1C#Cc1ccc(C(C)(C)C)cc1 [Compound No. 112, 4-((4-tert-butylphenyl)ethynyl)-N-ethylpyridine-3-amine] | ≥ 90 |
